{"source": "paper PMC7395068", "about": "“The evolution of strategies to minimise the risk of human drug-induced liver injury (DILI) in drug discovery and development” (Archives of Toxicology, 2020)", "key": {"[1]": {"conditions": "cited from earlier work; for DILI severity category (Chen et al. [2016]): LTKB DILIrank category; for DILI severity category (Chen et al. [2016]) / DILI severity category (Chen 2016): ref Chen et al. 2016; for DILI severity category (Chen 2016): human DILI classification, LTKB DILIrank"}, "PHH": {"system": "PHH", "conditions": "cited from earlier work; for PHH/100xCmax, Proctor (2017) / PHH/100uM, Proctor (2017): 2D PHH, ATP, ref Proctor et al. 2017; for PHH/100xCmax, Proctor (2017): IC50 < 100 × Cmax.tot; for PHH/100uM, Proctor (2017): IC50 threshold 100 µM; for PHH ATP <100uM: In vitro Assay, ref Proctor 2017"}, "hLiMTs [2]": {"system": "hLiMTs", "conditions": "cited from earlier work; for hLiMTs ATP <100uM: In vitro Assay, ref Proctor 2017; for hLiMTs/100xCmax, Proctor (2017) / hLiMTs/100uM, Proctor (2017): ATP, ref Proctor et al. 2017; for hLiMTs/100xCmax, Proctor (2017): IC50 < 100 × Cmax.tot; for hLiMTs/100uM, Proctor (2017): IC50 threshold 100 µM"}, "[3]": {"system": "HepG2 C3A spheroid, BSEP, Glu/Gal in HepG2 cells, bioactivation", "conditions": "cited from earlier work; for Bayesian Machine Learning DILI prediction, Williams (2019): Bayesian modeling, ref Williams et al. 2019; for Bayesian Machine Learning: ref Williams 2019"}, "[4]": {"conditions": "read-out: Human plasma Cmax; total plasma Cmax.tot, median of 9 literature references; cited from earlier work"}, "[5]": {"conditions": "cited from earlier work; for Assigned DILI category: Chen et al. 2016 or literature alignment, ref Chen et al. 2016"}, "hLiMTs [6]": {"system": "hLiMTs", "experiment": "Combined HCI (HCS) and cellular ATP 3D assay in hLiMTs", "conditions": "for DILI prediction hLiMTs (HCS-MEC): Microtissue model structural based (HCI), combined HCS and ATP, MEC < 25 × Cmax.tot cut-off"}, "HepaRG spheroids": {"system": "HepaRG spheroids", "experiment": "Combined HCI (HCS) and cellular ATP 3D assay in HepaRG spheroids", "conditions": "for DILI prediction HepaRG spheroids (HCS-MEC): Microtissue model structural based (HCI), combined HCS and ATP, MEC < 25 × Cmax.tot cut-off"}, "HepG2 cells [7]": {"system": "HepG2 cells", "conditions": "In vitro Assay; ref O'Brien 2006; cited from earlier work"}, "HepG2 cells [8]": {"system": "HepG2 cells", "conditions": "In vitro Assay; ref Persson 2013; cited from earlier work"}, "HepG2 cells [9]": {"system": "HepG2 cells", "conditions": "In vitro Assay; ref Tolosa 2012; cited from earlier work"}, "human hepatocytes": {"system": "human hepatocytes", "conditions": "In vitro Assay; ref Xu 2008; cited from earlier work"}, "[10]": {"system": "THLE or HepG2 cells, isolated mitochondria, BSEP", "conditions": "In vitro Assay; ref Aleo 2019; cited from earlier work"}, "PHH spheroids": {"system": "PHH spheroids", "conditions": "In vitro Assay; ref Vorrink 2018; cited from earlier work"}, "[11]": {"system": "HepG2 cells, primary human hepatocytes", "conditions": "In vitro Assay; ref Garside 2014; cited from earlier work"}, "[12]": {"conditions": "ref Chen 2011; cited from earlier work"}}, "note": "Read-outs that look alike come from different tables or passages of the source.", "data": [{"smiles": "Cc1c(-c2ccccc2)oc2c(C(=O)OCCN3CCCCC3)cccc2c1=O", "note": "[flavoxate]", "values": [{"measurement": "DILI severity category (Chen et al. [2016])", "setting": "[1]", "result": "No"}, {"measurement": "DILI severity category (Chen 2016)", "setting": "[1]", "result": "No"}, {"measurement": "DILI severity category", "setting": "[1]; human DILI severity, ref Chen et al.", "result": "No"}, {"measurement": "DILI +VE (5-8), DILI -VE (-4)", "setting": "[1]; ref Chen 2016", "result": "-VE"}, {"measurement": "DILI severity category", "setting": "[1]; ref Chen 2016", "result": "vNo-DILI-Concern"}, {"measurement": "PHH/100xCmax, Proctor (2017)", "setting": "PHH", "result": "-VE"}, {"measurement": "PHH/100uM, Proctor (2017)", "setting": "PHH", "result": "-VE"}, {"measurement": "PHH ATP <100uM", "setting": "PHH", "result": "-VE"}, {"measurement": "hLiMTs ATP <100uM", "setting": "hLiMTs [2]", "result": "-VE"}, {"measurement": "hLiMTs/100xCmax, Proctor (2017)", "setting": "hLiMTs [2]", "result": "-VE"}, {"measurement": "hLiMTs/100uM, Proctor (2017)", "setting": "hLiMTs [2]", "result": "-VE"}, {"measurement": "Bayesian Machine Learning DILI prediction, Williams (2019)", "setting": "[3]", "result": "-VE"}, {"measurement": "Bayesian Machine Learning", "setting": "[3]", "result": "-VE"}, {"measurement": "Cmax", "setting": "[4]", "result": 1790, "unit": "nM"}, {"measurement": "Assigned DILI category", "setting": "[5]", "result": 1}, {"measurement": "In vivo DILI", "setting": "[5]; ref Proctor 2017", "result": "-VE"}, {"measurement": "In vivo DILI", "setting": "[5]; ref Williams 2019", "result": "-VE"}, {"measurement": "AC50", "setting": "hLiMTs [6]; Homo sapiens, read-out: ATP endpoint AC50", "result": 127, "unit": "µM"}, {"measurement": "minimal effective concentration", "setting": "hLiMTs [6]; Homo sapiens, read-out: ATP endpoint MEC", "result": 111, "unit": "µM"}, {"measurement": "DILI prediction hLiMTs (HCS-MEC)", "setting": "hLiMTs [6]", "result": "-VE"}, {"measurement": "hLiMTs <25x Avg Cmax ATP", "setting": "hLiMTs [6]; hLiMTs, ATP endpoint, cut-off <25x Avg Cmax", "result": "-ve"}, {"measurement": "hLiMTs <100x Avg Cmaxu ATP", "setting": "hLiMTs [6]; hLiMTs, ATP endpoint, cut-off <100x Avg Cmaxu", "result": "-ve"}, {"measurement": "hLiMTs <25x Avg Cmax HCS", "setting": "hLiMTs [6]; hLiMTs, HCS endpoints, cut-off <25x Avg Cmax", "result": "-ve"}, {"measurement": "hLiMTs <100x Avg Cmaxu HCS", "setting": "hLiMTs [6]; hLiMTs, HCS endpoints, cut-off <100x Avg Cmaxu", "result": "-ve"}, {"measurement": "hLiMTs <25x Avg Cmax All", "setting": "hLiMTs [6]; hLiMTs, all endpoints (ATP and HCS), cut-off <25x Avg Cmax", "result": "-ve"}, {"measurement": "hLiMTs Cmax max All", "setting": "hLiMTs [6]; hLiMTs, all endpoints, Cmax max used", "result": "-ve"}, {"measurement": "hLiMTs Cmax min All", "setting": "hLiMTs [6]; hLiMTs, all endpoints, Cmax min used", "result": "-ve"}, {"measurement": "hLiMTs <10 uM All", "setting": "hLiMTs [6]; hLiMTs, all endpoints, cut-off <10 uM", "result": "-ve"}, {"measurement": "hLiMTs <100x Avg Cmaxu All", "setting": "hLiMTs [6]; hLiMTs, all endpoints, cut-off <100x Avg Cmaxu", "result": "-ve"}, {"measurement": "HepaRG <25x Avg Cmax ATP", "setting": "HepaRG spheroids; HepaRG, ATP endpoint, cut-off <25x Avg Cmax", "result": "-ve"}, {"measurement": "HepaRG <100x Avg Cmaxu ATP", "setting": "HepaRG spheroids; HepaRG, ATP endpoint, cut-off <100x Avg Cmaxu", "result": "-ve"}, {"measurement": "HepaRG <25x Avg Cmax HCS", "setting": "HepaRG spheroids; HepaRG, HCS endpoints, cut-off <25x Avg Cmax", "result": "-ve"}, {"measurement": "HepaRG <100x Avg Cmaxu HCS", "setting": "HepaRG spheroids; HepaRG, HCS endpoints, cut-off <100x Avg Cmaxu", "result": "-ve"}, {"measurement": "HepaRG <25x Avg Cmax All", "setting": "HepaRG spheroids; HepaRG, all endpoints (ATP and HCS), cut-off <25x Avg Cmax", "result": "-ve"}, {"measurement": "HepaRG Cmax max All", "setting": "HepaRG spheroids; HepaRG, all endpoints, Cmax max used", "result": "-ve"}, {"measurement": "HepaRG Cmax min All", "setting": "HepaRG spheroids; HepaRG, all endpoints, Cmax min used", "result": "-ve"}, {"measurement": "HepaRG <10 uM All", "setting": "HepaRG spheroids; HepaRG, all endpoints, cut-off <10 uM", "result": "-ve"}, {"measurement": "HepaRG <100x Avg Cmaxu All", "setting": "HepaRG spheroids; HepaRG, all endpoints, cut-off <100x Avg Cmaxu", "result": "-ve"}, {"measurement": "DILI prediction HepaRG spheroids (HCS-MEC)", "setting": "HepaRG spheroids", "result": "-VE"}]}, {"smiles": "CC(C)[N+](C)(CCOC(=O)C1c2ccccc2Oc2ccccc21)C(C)C", "note": "[propantheline bromide]", "values": [{"measurement": "DILI severity category (Chen et al. [2016])", "setting": "[1]", "result": "No"}, {"measurement": "DILI severity category (Chen 2016)", "setting": "[1]", "result": "No"}, {"measurement": "PHH/100xCmax, Proctor (2017)", "setting": "PHH", "result": "-VE"}, {"measurement": "PHH/100uM, Proctor (2017)", "setting": "PHH", "result": "-VE"}, {"measurement": "hLiMTs/100xCmax, Proctor (2017)", "setting": "hLiMTs [2]", "result": "-VE"}, {"measurement": "hLiMTs/100uM, Proctor (2017)", "setting": "hLiMTs [2]", "result": "-VE"}, {"measurement": "Bayesian Machine Learning DILI prediction, Williams (2019)", "setting": "[3]", "result": "-VE"}, {"measurement": "Cmax", "setting": "[4]", "result": 440, "unit": "nM"}, {"measurement": "Assigned DILI category", "setting": "[5]", "result": 1}, {"measurement": "DILI prediction hLiMTs (HCS-MEC)", "setting": "hLiMTs [6]", "result": "-VE"}, {"measurement": "DILI prediction HepaRG spheroids (HCS-MEC)", "setting": "HepaRG spheroids", "result": "-VE"}]}, {"smiles": "Cc1cn([C@H]2C=C[C@@H](CO)O2)c(=O)[nH]c1=O", "note": "[stavudine]", "values": [{"measurement": "DILI +VE (5-8), DILI -VE (-4)", "setting": "[1]; ref Chen 2016", "result": "+VE"}, {"measurement": "DILI severity category", "setting": "[1]; ref Chen 2016", "result": "vMost-DILI-Concern"}, {"measurement": "Structural based (HCI)", "setting": "HepG2 cells [7]", "result": "-VE"}, {"measurement": "Cluser analysis", "setting": "HepG2 cells [8]", "result": "-VE"}, {"measurement": "Structural based (HCI)", "setting": "HepG2 cells [8]", "result": "+VE"}, {"measurement": "Structural based (HCI)", "setting": "HepG2 cells [9]", "result": "-VE"}, {"measurement": "Structural based (HCI)", "setting": "human hepatocytes", "result": "-VE"}, {"measurement": "Partition Hybrid HRM Score", "setting": "[10]", "result": "-VE"}, {"measurement": "Ro2 Hybrid HRM Score", "setting": "[10]", "result": "-VE"}, {"measurement": "PHH ATP <100uM", "setting": "PHH", "result": "-VE"}, {"measurement": "hLiMTs ATP <100uM", "setting": "hLiMTs [2]", "result": "-VE"}, {"measurement": "hLiMTs ATP <20 x Cmax", "setting": "PHH spheroids", "result": "-VE"}, {"measurement": "Bayesian Machine Learning", "setting": "[3]; In vitro Assay", "result": "+VE"}, {"measurement": "In vivo DILI", "setting": "[5]; […]", "result": "+VE"}, {"measurement": "In vivo DILI", "setting": "[5]; ref Aleo 2019", "result": "+VE"}, {"measurement": "In vivo DILI", "setting": "[5]; ref Garside 2014", "result": "+VE"}, {"measurement": "In vivo DILI", "setting": "[5]; ref O'Brien 2006", "result": "+VE"}, {"measurement": "In vivo DILI", "setting": "[5]; ref Persson 2013", "result": "+VE"}, {"measurement": "In vivo DILI", "setting": "[5]; ref Proctor 2017", "result": "+VE"}, {"measurement": "In vivo DILI", "setting": "[5]; ref Tolosa 2012", "result": "+VE"}, {"measurement": "In vivo DILI", "setting": "[5]; ref Vorrink 2018", "result": "+VE"}, {"measurement": "In vivo DILI", "setting": "[5]; ref Williams 2019", "result": "+VE"}, {"measurement": "In vivo DILI", "setting": "[5]; ref Xu 2008", "result": "+VE"}, {"measurement": "Cluster 1-6 +VE Assay", "setting": "[11]", "result": "-VE"}, {"measurement": "DILI Score (FDA) (1-8)", "setting": "[12]", "result": 8}]}]}
